Measured values as given in ChEMBL document CHEMBL4118162, “Discovery of novel anti-tuberculosis agents with pyrrolo[1,2-a]quinoxaline-based scaffold” (Bioorg Med Chem Lett, 2018).
Values after ≈ are worked out from the molar mass of the structure shown.

What was measured:
[1] = test system: Mycobacterium tuberculosis; experiment: Antitubercular activity against Mycobacterium tuberculosis H37Ra up to 7 days; assay type: functional; conditions: 168 h
[2] = Solubility of the compound in water at 500 ug/mL by HPLC method; assay type: physicochemical
[3] = Cytotoxicity against human LO2 cells assessed as growth inhibition up to 20 uM after 48 hrs by MTT assay; assay type: cell-based, L02; conditions: read-out: GI
[4] = Cytotoxicity against human SKOV3 cells assessed as growth inhibition up to 20 uM after 48 hrs by MTT assay; assay type: cell-based, SK-OV-3; conditions: read-out: GI
[5] = Cytotoxicity against human MDA231 cells assessed as growth inhibition up to 20 uM after 48 hrs by MTT assay; assay type: cell-based, MDA-MB-231; conditions: read-out: GI
[6] = target: T1, Enoyl-[acyl-carrier-protein] reductase [NADH] (Mycobacterium tuberculosis) (UniProt P9WGR1); experiment: Inhibition of Mycobacterium tuberculosis InhA at 100 uM using trans-2-decenoyl-N-acetylcysteamine as substrate preincubated for 1 hr followed by substrate addition measured every 30 secs for 5 mins
T1 sequence (whole entry): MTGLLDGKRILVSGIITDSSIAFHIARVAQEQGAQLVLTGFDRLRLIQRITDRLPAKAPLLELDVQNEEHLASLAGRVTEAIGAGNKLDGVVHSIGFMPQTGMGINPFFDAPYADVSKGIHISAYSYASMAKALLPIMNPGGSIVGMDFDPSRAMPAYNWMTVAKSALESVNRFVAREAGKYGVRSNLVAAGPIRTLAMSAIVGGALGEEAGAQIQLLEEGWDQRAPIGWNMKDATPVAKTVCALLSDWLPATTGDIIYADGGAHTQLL

[7] = test system: Mycobacterium tuberculosis; experiment: Antitubercular activity against Mycobacterium tuberculosis H37Ra assessed as as inhibition of bacterial growth at 10 ug/ml up to 7 days; assay type: functional; conditions: 168 h, read-out: GI
[8] = Solubility of the compound in water at 180 uM by HPLC method; assay type: physicochemical
[9] = Effective permeability of the compound in PBS/EtOH at 50 ug/mL after 18 hrs by PAMPA-BBB assay
[10] = target: T2, Enoyl-[acyl-carrier-protein] reductase [NADH] (Mycobacterium tuberculosis, UniProt P9WGR1); experiment: Inhibition of Mycobacterium tuberculosis InhA using trans-2-decenoyl-N-acetylcysteamine as substrate preincubated for 1 hr followed by substrate addition measured every 30 secs for 5 mins
T2 sequence (P9WGR1 whole entry): T1 sequence (whole entry)

Compound	MIC90 [1] [µg/mL]	solubility [2] [µg/mL]	inhibition at 48 h [3] [%]	inhibition at 48 h [4] [%]	inhibition at 48 h [5] [%]	inhibition [6] [%]	inhibition of growth at 10 µg/mL [7] [%]	solubility at 180 µM [8] [µg/mL]	Papp at 18 h, 50 ug/mL [9] [×10⁻⁶ cm/s]	IC50 [10] [µM]
CC(C)NCc1cc(-c2ccccc2F)n2c1cnc1cc(Cl)ccc12	10 (≈ 27.2 µM)	33.2 (≈ 90.1 µM)	76.4	76.4	71.7	27.4	≥ 90	–	–	–
CCN(CC)Cc1cc(-c2ccccc2F)n2c1cnc1cc(Cl)ccc12	10 to 50 (≈ 26.2 to 131 µM)	–	–	–	–	–	≥ 90	–	–	–
CCCNCc1cc(-c2ccccc2F)n2c1cnc1ccccc12	10 to 50 (≈ 30 to 150 µM)	73.3 (≈ 220 µM)	–	–	–	5.21	≥ 90	–	–	–
Fc1ccccc1-c1cc(CNCc2c(F)cccc2Cl)c2cnc3ccccc3n12	> 50	20.8 (≈ 48 µM)	–	–	–	–	≥ 90	–	–	–
CCCCNCc1cc(-c2ccccc2F)n2c1cnc1cc(Cl)ccc12	10 (≈ 26.2 µM)	20 (≈ 52.3 µM)	73.7	75.9	74.5	33.3	≥ 90	–	–	–
CCCCNCc1cc(-c2ccccc2F)n2c1cnc1cc(Br)ccc12	10 (≈ 23.5 µM)	6.74 (≈ 15.8 µM)	68.7	66.3	70.8	50.2	≥ 90	–	–	–
Fc1ccccc1-c1cc(CN2CCN(c3ccccc3C(F)(F)F)CC2)c2cnc3cc(Cl)ccc3n12	> 50	< 2.5	–	–	–	–	≥ 90	–	–	–
CC(C)NCc1cc(-c2ccccc2F)n2c1cnc1ccccc12	10 to 50 (≈ 30 to 150 µM)	70.5 (≈ 212 µM)	–	–	–	17.3	≥ 90	–	–	–
Fc1ccc2c(c1)ncc1c(CNCc3ccccc3)cc(-c3ccccc3F)n12	10 (≈ 25 µM)	4.9 (≈ 12.3 µM)	20.1	-7.09	-8.04	48.5	≥ 90	–	–	–
COc1ccc(CCNCc2cc(-c3ccccc3F)n3c2cnc2cc(Cl)ccc23)cc1OC	5 (≈ 10.2 µM)	–	53.5	84.4	76.4	40.4	≥ 90	90 (≈ 184 µM)	9.39	–
CCCCNCc1cc(-c2ccccc2F)n2c1cnc1cc(F)ccc12	25 (≈ 68.4 µM)	8.61 (≈ 23.6 µM)	–	–	–	7.88	≥ 90	–	–	–
Fc1ccccc1-c1cc(CNCc2ccccc2)c2cnc3cc(Br)ccc3n12	10 (≈ 21.7 µM)	< 2.5	5.38	13.3	32.1	62	≥ 90	–	–	54
Fc1ccccc1-c1cc(CNCCc2ccc(Br)cc2)c2cnc3cc(Cl)ccc3n12	5 (≈ 9.83 µM)	< 2.5	40.1	71.8	70.5	64.9	≥ 90	–	–	48
CCCCNCc1cc(-c2ccccc2F)n2c1cnc1ccccc12	10 to 50 (≈ 28.8 to 144 µM)	120 (≈ 346 µM)	–	–	–	14.4	≥ 90	–	–	–
CCN(CC)Cc1cc(-c2ccccc2F)n2c1cnc1ccccc12	> 50	–	–	–	–	–	≥ 90	–	–	–
Fc1ccccc1-c1cc(CNCCc2ccc(Br)cc2)c2cnc3ccccc3n12	5 (≈ 10.5 µM)	< 2.5	72.3	69.3	76.1	17.3	≥ 90	–	–	–
Fc1ccccc1-c1cc(CNCc2c(F)cccc2Cl)c2cnc3cc(Cl)ccc3n12	> 50	< 2.5	–	–	–	–	≥ 90	–	–	–
Fc1ccccc1-c1cc(CNCc2ccccc2)c2cnc3ccccc3n12	10 to 50 (≈ 26.2 to 131 µM)	21.1 (≈ 55.3 µM)	–	–	–	22.1	≥ 90	–	–	–
CCN(Cc1ccccc1)Cc1cc(-c2ccccc2F)n2c1cnc1cc(Cl)ccc12	> 50	< 2.5	–	–	–	–	≥ 90	–	–	–
CCCNCc1cc(-c2ccccc2F)n2c1cnc1cc(Cl)ccc12	10 (≈ 27.2 µM)	17.5 (≈ 47.6 µM)	73.7	77	74.5	24.8	≥ 90	–	–	–
Fc1ccccc1-c1cc(CNCc2ccccc2)c2cnc3cc(Cl)ccc3n12	5 (≈ 12 µM)	< 2.5	43.7	19.4	27.8	37	≥ 90	–	–	–
COc1ccc(CCNCc2cc(-c3ccccc3F)n3c2cnc2ccccc23)cc1OC	10 to 50 (≈ 22 to 110 µM)	50.7 (≈ 111 µM)	–	–	–	6.28	≥ 90	–	–	–
Fc1ccccc1-c1cc(CN2CCOCC2)c2cnc3cc(Cl)ccc3n12	> 50	< 2.5	–	–	–	–	≥ 90	–	–	–
